# Legend:
# [1] = Plasma pharmacokinetics of meptazinol dicarboxylate linked prodrugs after oral gavage to dogs; format: in vivo, dog; conditions: 1 mg meptazinol base equivalents/kg
# [2] = Plasma pharmacokinetics of meptazinol dicarboxylate linked prodrugs after oral gavage to cynomolgus monkeys; format: in vivo, cynomolgus monkey; conditions: cynomolgus monkey, oral gavage of prodrug, 1 mg meptazinol base equivalents/kg, prodrug level, BLQ = below 0.5 ng/mL
# [3] = In vitro stability of dicarboxylate amino acid ester prodrugs in simulated gastric and intestinal juice, distilled water and pH 10 buffer (HPLC); conditions: for Simulated gastric fluid (pH 1.1): % remaining after 2 h/37° C.: pH 1.1, 2 h; for Distilled water (pH 5.9): % remaining after 2 h/20° C.: pH 5.9, 2 h; for Simulated intestinal fluid (pH 6.8): % remaining after 2 h/37° C.: pH 6.8, 2 h; for pH 10.0 buffer: % remaining after 2 h/20° C.: pH 10.0, 2 h
# [4] = Comparative oral bioavailability of oxycodone from various dicarboxylate bridged amino acid prodrugs in dogs (nine-way crossover); format: in vivo, dog; conditions: 1 mg/kg oxycodone free base; for Cmax of oxycodone / T50% Cmax of oxycodone / AUC0-t of oxycodone: mean (±sd); for AUC0-t of oxycodone: t = last quantifiable time point
Compound,"Cmax ([1]; beagle, plasma, dog, oral gavage of prodrug, prodrug level, BLQ = below 0.5 ng/mL, read-out: Dog Cmax (plasma prodrug levels, in brackets)) [ng/mL]",systemic levels of the prodrug ([1]; oral gavage),"Cmax ([2]; plasma, read-out: Monkey Cmax (plasma prodrug levels, in brackets)) [ng/mL]","Dog Cmax (plasma prodrug levels, in brackets) ([1]; dog, oral gavage of prodrug, prodrug level, BLQ = below 0.5 ng/mL)","Monkey Cmax (plasma prodrug levels, in brackets) [2]",Simulated gastric fluid (pH 1.1): % remaining after 2 h/37° C. [3] [%],Distilled water (pH 5.9): % remaining after 2 h/20° C. [3] [%],Simulated intestinal fluid (pH 6.8): % remaining after 2 h/37° C. [3] [%],pH 10.0 buffer: % remaining after 2 h/20° C. [3] [%],F % (absolute oral bioavailability of oxycodone) [4] [%],Cmax of oxycodone [4],T50% Cmax of oxycodone [4],AUC0-t of oxycodone [4]
"CCC1(c2cccc(OC(=O)CC(C)(C)CC(=O)N[C@H](C(=O)O)C(C)C)c2)CCCCN(C)C1 (stereo partly drawn) [Meptazinol-[3,3-dimethyl-glutaryl-(S)-valine] ester]",116,good systemic levels of the prodrug,43,–,–,–,–,–,–,–,–,–,–
CCC1(c2cccc(OC(=O)/C=C/C(=O)N[C@H](C(=O)O)C(C)C)c2)CCCCN(C)C1 (stereo partly drawn) [Meptazinol-[fumaryl-(S)-valine] ester],–,–,–,BLQ,BLQ,–,–,–,–,–,–,–,–
COc1ccc2c3c1O[C@H]1C(OC(=O)CCC(=O)N4CCC[C@H]4C(=O)O)=CC[C@@]4(O)[C@@H](C2)N(C)CC[C@]314 [Oxycodone succinyl proline ester],–,–,–,–,–,98,100,96,80,20.8,20.1 (±4.60) ng/mL,3.4 (±0.9) h.,75.2 (±13.7) h. * ng/mL
"CC[C@H](C)[C@H](NC(=O)CCCC(=O)OC1=CC[C@@]2(O)[C@H]3Cc4ccc(OC)c5c4[C@@]2(CCN3C)[C@H]1O5)C(=O)O [Oxycodone-Glutaryl-Ile Enol Ester, oxycodone-[glutaryl-(S)-isoleucine]enol ester]",–,–,–,–,–,98,100,80,80,37.4,46.8 (±15.0) ng/mL,2.8 (±0.2) h.,135.7 (±27.9) h. * ng/mL
"COc1ccc2c3c1O[C@H]1C(OC(=O)CCCC(=O)N[C@H](C(=O)O)C(C)C)=CC[C@@]4(O)[C@@H](C2)N(C)CC[C@]314 [Oxycodone-Glutaryl-Val Enol Ester, oxycodone-[glutaryl-(S)-valine] enol ester]",–,–,–,–,–,98,100,87,75,–,–,2.9 (±0.3) h.,–
"CC[C@H](C)[C@H](NC(=O)CCC(=O)OC1=CC[C@@]2(O)[C@H]3Cc4ccc(OC)c5c4[C@@]2(CCN3C)[C@H]1O5)C(=O)O [Oxycodone-Succinyl-Ile Enol Ester, oxycodone-[succinyl-(S)-isoleucine] enol ester]",–,–,–,–,–,98,100,91,66,36.0,57.9 (±8.7) ng/mL,1.6 (±0.4) h.,130.6 (±25.6) h. * ng/mL
"COc1ccc2c3c1OC1C(OC(=O)CCC(=O)N[C@@H](CC(C)C)C(=O)O)=CC[C@@]4(O)[C@@H](C2)N(C)CC[C@]314 (stereo partly drawn) [Oxycodone-Succinyl-Leu Enol Ester, oxycodone-[succinyl-(S)-leucine]enol ester]",–,–,–,–,–,98,100,78,68,39.3,60.9 (±15.0) ng/mL,1.9 (±0.2) h.,142.5 (±28.4) h. * ng/mL
"COc1ccc2c3c1OC1C(OC(=O)CCC(=O)N[C@@H](CCSC)C(=O)O)=CC[C@@]4(O)[C@@H](C2)N(C)CC[C@]314 (stereo partly drawn) [Oxycodone-Succinyl-Met Enol Ester, oxycodone-[succinyl-(S)-methionine]enol ester]",–,–,–,–,–,99,100,84,58,49.8,68.3 (±21.1) ng/mL,2.3 (±0.8) h.,180.6 (±37.7) h. * ng/mL
"COc1ccc2c3c1O[C@H]1C(OC(=O)CCC(=O)N[C@@H](Cc4ccccc4)C(=O)O)=CC[C@@]4(O)[C@@H](C2)N(C)CC[C@]314 [Oxycodone-Succinyl-Phe Enol Ester, oxycodone-[succinyl-(S)-phenylalanine]enol ester]",–,–,–,–,–,99,100,3,65,–,–,–,–

# — patent publication US20100286186A1, “NOVEL DICARBOXYLIC ACID LINKED AMINO ACID AND PEPTIDE PRODRUGS OF OPIOIDS AND USES THEREOF” (Shire LLC, priority 2009, published 2010)
